Results published in patent publication US10238111B2, “Fungicidal compositions” (Dow AgroSciences LLC, priority 2014, dated 2019).

How the values were obtained:
Assay type in all cases: physicochemical
[1] = Approximate (relative) solubility of active ingredients in organic solvents at ambient temperature; conditions: 0.2 g Compound A mixed with 1.38 g cyclohexanone
Description: The approximate solubility of Compound A was determined by mixing a known mass of the active ingredient with an increasing mass of each solvent at ambient temperature. […] The solubility of Compound A in the solvents used in this screening procedure was generally classified within the following concentration ranges: […]

[2] = Solubility of Compound A and prothioconazole in benzyl acetate/AMD810 blends at 10° C. (HPLC); conditions: both actives saturated
Description: A study of the Compound A and prothioconazole solubility in blends of benzyl acetate/AMD810 was conducted. To each solvent blend both actives were added until each was saturated and the resulting mixtures were then stored at 10° C. until equilibrium was obtained. Aliquots of the supernatant layer were taken from each sample, filtered (0.45 μm mesh) and analyzed by HPLC to determine the solution concentration of each active in the blends.

[3] = Accelerated storage stability of Compound A in liquid compositions, 2 weeks at 54° C. (HPLC)
Description: The test compositions were prepared in a manner similar to that described in Example 1 using one or more of Compound A, prothioconazole, pyraclostrobin, benzyl acetate, and AMD 810, and a third solvent chosen from cyclohexanone, acetophenone, 2-heptanone, 2-heptanal, oleyl alcohol or 2-ethylhexanol.

## COc1ccnc(C(=O)N[C@H]2COC(=O)[C@H](Cc3ccccc3)[C@@H](OC(=O)C(C)C)[C@H](C)OC2=O)c1OCOC(=O)C(C)C [Compound A, propanoic acid, 2-methyl-, [[4-methoxy-2-[[[(3S,7R,8R,9S)-9-methyl-8-(2-methyl-1-oxopropoxy)-2,6-dioxo-7-(phenylmethyl)-1,5-dioxonan-3-yl]amino]carbonyl]-3-pyridinyl]oxy]methyl ester]
[1]
  clear solution comprising Compound A: 12.6 % w/w
[2]; benzyl acetate to AMD810 in blend 0 wt %
  Compound A Solubility at 10° C.: 3.3 % w/w
[2]; benzyl acetate to AMD810 in blend 20 wt %
  Compound A Solubility at 10° C.: 4.3 % w/w
[2]; benzyl acetate to AMD810 in blend 40 wt %
  Compound A Solubility at 10° C.: 6.5 % w/w
[2]; benzyl acetate to AMD810 in blend 60 wt %
  Compound A Solubility at 10° C.: 11.0 % w/w
[2]; benzyl acetate to AMD810 in blend 80 wt %
  Compound A Solubility at 10° C.: 12.0 % w/w
[3]; wt %: Compound A 3.4, AMD 810 96.0, third solvent none
  Compound A after Storage (% retention): 49^ % retention
[3]; wt %: Compound A 4.9, benzyl acetate 94.1, third solvent none
  Compound A after Storage (% retention): 85^ % retention
[3]; wt %: Compound A 12.0, cyclohexanone 85.7
  Compound A after Storage (% retention): 96^ % retention
